Results as given in patent US20030199516A1, “Methods of treating infection by drug resistant bacteria” (Genesoft, Inc., priority 2001, published 2003).

Tests used:
[1] = system: Streptococcus pneumoniae ATCC 51422; assay: NCCLS broth microdilution MIC; type: cell-based; conditions: Col. E = S. pneumoniae ATCC 51422 (PRSP)
Source text: (§1) In vitro antibacterial activity data were collected for the following Gram-positive bacteria: Staphylococcus aureus (ATCC 27660, ATCC 33591 and ATCC 43300, all methicillin resistant strains (MRSA's)); Streptococcus pneumoniae (ATCC 51422, a penicillin resistant strain (PRSP)), Enterococcus faecium (ATCC 51559, and/or a vancomycin resistant strain (VRE)). Additionally, antifungal activity data were collected for Candida albicans (ATCC 38247). Minimal inhibition concentrations (MIC's) were determined using the National Committee for Clinical Laboratory Standards (NCCLS) broth microdilution assay in microtiter plates, as set forth in: (1) the guidelines of the National Committee for Clinical Laboratory Standards (NCCLS) Document M7-A4 (NCCLS, 1997); (2) the guidelines of the National Committee for Clinical Laboratory Standards (NCCLS) Document M11-A4 (NCCLS, 1997); and (3) the guidelines and reference method of the National Committee for Clinical Laboratory Standards (NCCLS) Document M27-T (NCCLS, 1995). For antifungal essays, the method recommended in Murray, PR., 1995 Manual of Clinical Microbiology (ASM Press, Washington, D.C.), was employed.

[2] = system: Enterococcus faecium ATCC 51559; assay: NCCLS broth microdilution MIC; type: cell-based; conditions: Col. D = E. faecium ATCC 51559 (VRE)
Source text: as §1

[3] = system: Candida albicans ATCC 38247; assay: Antifungal MIC; type: cell-based; conditions: Col. F = C. albicans ATCC 38247
Source text: as §1

[4] = target: target sequence TGACAATTAAT (352 bp fragment, Plasmid C); assay: Quantitative DNase I footprint titration; type: binding; conditions: 352 bp C, 22° C., pH 7.0, read-out: Dissociation Constant Kd
Source text: (§2) Compounds (1) through (20) according to this invention were screened for their ability to bind to specified DNA target sequences, using DNase I footprinting. Generally, the procedure described in Dervan, WO 98/50582 (1998), was followed.
(§3) Three double stranded circular plasmids A, B, and C were used to prepare double stranded DNA-binding probes containing the target sequences for the DNase I footprint titration experiments. Plasmids A, B, and C had nucleotide sequences given by SEQ ID NO. I, SEQ ID NO. II, and SEQ ID NO. III, respectively.
(§4) The 3′-P32 end-labeled EcoRI/PvuII fragments from each plasmid were prepared by digesting the plasmids with EcoRI and PvuII with simultaneous fill-in using Sequenase v. 2.0, [alpha-P32]-deoxyadenosine-5′-triphosphate, and [alpha-P32]-thymidine-5′-triphosphate, and isolating the cloned fragments by nondenaturing gel electrophoresis. A and G sequencing reactions were carried out as described (See Maxam and Gilbert, Methods Enzymol., 1980, 65, 499-560; Iverson and Dervan, Methods Enzymol., 1987, 15, 7823-7830; Sambrook et al., 1989, Molecular Cloning, 2nd ed., Cold Spring Harbor Laboratory Press: Cold Spring Harbor, N.Y.) Standard methods were used for all DNA manipulations (Sambrook et al., ibid.) The cut sites for EcoRI and PvuII are indicated by bars in the respective maps of Plasmids A, B, and C in FIGS. 5, 6, and 7.
(§5) The 351 base pair dsDNA restriction fragment (SEQ ID NO. IV) of Plasmid A contained the target sequences AAAAAGCAAAAA, AAAAAGACAAAAA, and AAAAAGTACAAAAA. The 310 base pair dsDNA restriction fragment (SEQ ID NO. V) of Plasmid B contained the target sequences AGTACT, AATACT, and ATTACT. The 352 base pair dsDNA restriction fragment (SEQ ID NO. VI) of Plasmid C contained the target sequences TGACAATTAAT, GACAATTAATCA, AATTAATCAT, ACAATTA, and ACAATTAAT. These fragments were used for quantitative DNase I footprinting experiments. Compounds used in the method of this invention bind to at least one of the target sites with a equal to or less than 100 nM, preferably equal to or less than 50 nM, and more preferably equal to or less than 20 nM. The target sequences were selected for the identity with, or similarity to, promoter sites for bacterial genes.
(§6) Quantitative DNase I footprint titration experiments were carried out as described previously (Dervan, WO 98/50582, 1998) with the following changes. All reactions were carried out in a total volume of 400 μL, with compound stock solution or water added to 15,000 cpm radiolabeled restriction fragment affording final solution conditions of 10 mM Tris HCl, 10 mM KCl, 10 mM MgCl2, 5 mM CaCl2, pH 7.0 and 0.01 nM, 0.1 nM, 1.0 nM, 10.0 nM compound or no compound for reference lanes. The compounds were allowed to equilbrate at 22° C. for 16 h. Footprinting reactions were initiated with addition of 10 μL of a DNase I stock solution (at the appropriate concentration to give ˜50% intact DNA) containing 1 mM DTT and allowed to proceed for 7 min at 22° C. The reactions were stopped, ethanol precipitated, resuspended in loading buffer, heat denatured, and placed on ice as described previously (Dervan WO 98/50582, 1998). The reaction products were separated on a precast 8% polyacrylamide denaturing sequencing Castaway gel with 32 preformed wells from Stratagene in 1×TBE at 2000 V. Gels were dried according to the manufacturer and exposed to a storage phosphor screen (Molecular Dynamics). Quantitation and data analysis were carried out as described in Dervan, WO 98/50582, 1998.

[5] = target: target sequence […] (351 bp fragment, Plasmid A); assay: Quantitative DNase I footprint titration; type: binding; conditions: AAAAAGTACAAAAA, 351 bp A; 22° C., pH 7.0; read-out: Dissociation Constant Kd
Source text: as §2, §3, §4, §5, §6

S. aureus ATCC 27660 = assay: NCCLS broth microdilution MIC; type: cell-based, Staphylococcus aureus; conditions: Col. A = S. aureus ATCC 27660 (MRSA)
Source text: as §1

S. aureus ATCC 33591 = assay: NCCLS broth microdilution MIC; type: cell-based, Staphylococcus aureus; conditions: Col. B = S. aureus ATCC 33591 (MRSA)
Source text: as §1

[6] = target: target sequence GACAATTAATCA (352 bp fragment, Plasmid C); assay: Quantitative DNase I footprint titration; type: binding; conditions: 352 bp C, 22° C., pH 7.0, read-out: Dissociation Constant Kd
Source text: as §2, §3, §4, §5, §6

[7] = target: target sequence AATTAATCAT (352 bp fragment, Plasmid C); assay: Quantitative DNase I footprint titration; type: binding; conditions: 352 bp C, 22° C., pH 7.0, read-out: Dissociation Constant Kd
Source text: as §2, §3, §4, §5, §6

S. aureus ATCC 43300 = assay: NCCLS broth microdilution MIC; type: cell-based, Staphylococcus aureus; conditions: Col. C = S. aureus ATCC 43300 (MRSA)
Source text: as §1

[8] = system: methicillin resistant Staphylococcus aureus ATCC 33591; assay: Murine neutropenic thigh model; type: in vivo; conditions: neutropenic CF1 mice, 50 mg/kg intravenously 2 h post infection, 24 hr after treatment, vehicle 8.03
Description: A S. aureus ATCC 33591 culture was grown to log phase overnight and diluted in phosphate buffered saline (pH 7.2) to an optical density of about 0.1 at 600 nm, giving an approximate concentration of 10^8 cfu/mL. The suspension was diluted 1:100 in phosphate buffered saline (pH 7.2) for a final concentration of 10^6 cfu/mL.
Outbred female CFI mice (approx. 20 gram body weight) were rendered netutropenic by treatment with cyclophosphamide (200 mg/kg body weight, intraperitoneal injection) at 2 and 4 days prior to inoculation. Groups of 5 mice were inoculated with 0.05 mL of the bacteria (approx. 10^6 cfu/mL) into the anterior thigh. Each group was treated intravenously two hours post infection with vehicle (phosphate buffered saline) or test compound. The mice were sacrificed at either 6 or 24 hrs after treatment and thighs were collected aseptically. Each thigh was weighed, placed into sterile saline, and homogenized. The tissue homogenates were diluted appropriately for plating on agar plates. Colony counts were recorded (cfu/gram) and compared to control groups.

Row | Compound | Minimum Inhibitory Concentration (MIC) [1] | Minimum Inhibitory Concentration (MIC) [2] | Minimum Inhibitory Concentration (MIC) [3] [µg/mL] | Kd [4] [nM] | Kd [5] [nM] | Minimum Inhibitory Concentration (MIC) (S. aureus ATCC 27660) | Minimum Inhibitory Concentration (MIC) (S. aureus ATCC 33591) | Kd [6] [nM] | Kd [7] [nM] | Minimum Inhibitory Concentration (MIC) (S. aureus ATCC 43300) | Colony Count [8] [log cfu/gram]
1 | CC(C)N(CCNC(=O)CCNC(=O)c1cc(NC(=O)c2cc(NC(=O)CCNC(=O)c3cc(NC(=O)c4cc(NC(=O)c5cc(Br)c(Br)s5)cn4C)cn3C)cn2C)cn1C)C(C)C [Compound 2] | ++ (++ = MIC ≦ 1) | + (+ = MIC ≦ 2) | >32 | 10 | 0.2 | ++ (++ = MIC ≦ 1) | − (− = MIC > 2) |  |  |  | 
2 | Cn1cc(NC(=O)c2cc(NC(=O)CCNC(=O)c3cc(NC(=O)c4cc(NC(=O)c5cc(Br)c(Br)s5)cn4C)cn3C)cn2C)cc1C(=O)NCCC(=O)NCCN1CCCCC1 [Compound 3] | ++ (++ = MIC ≦ 1) | + (+ = MIC ≦ 2) | >32 | 2 | 0.01 | ++ (++ = MIC ≦ 1) | ++ (++ = MIC ≦ 1) |  |  |  | 
3 | CCN(CC)CCCNC(=O)CCNC(=O)c1cc(NC(=O)c2cc(NC(=O)CCNC(=O)c3cc(NC(=O)c4cc(NC(=O)c5cc(Br)c(Br)s5)cn4C)cn3C)cn2C)cn1C [Compound 4] | ++ (++ = MIC ≦ 1) | − (− = MIC > 2) | >32 | 10 | 0.01 | ++ (++ = MIC ≦ 1) | ++ (++ = MIC ≦ 1) |  |  |  | 
4 | CN(C)CC(C)(C)CNC(=O)CCNC(=O)c1cc(NC(=O)c2cc(NC(=O)CCNC(=O)c3cc(NC(=O)c4cc(NC(=O)c5cc(Br)c(Br)s5)cn4C)cn3C)cn2C)cn1C [Compound 5] | ++ (++ = MIC ≦ 1) | − (− = MIC > 2) | >32 |  | 0.01 | ++ (++ = MIC ≦ 1) | ++ (++ = MIC ≦ 1) | 2 |  |  | 
5 | Cn1cc(NC(=O)c2cc(NC(=O)c3cc(NC(=O)c4sc5ccccc5c4Cl)cn3C)cn2C)cc1C(=O)NCCN1CCOCC1 [Compound 8] | ++ (++ = MIC ≦ 1) | ++ (++ = MIC ≦ 1) | >32 |  |  | ++ (++ = MIC ≦ 1) | ++ (++ = MIC ≦ 1) |  | 0.2 | ++ (++ = MIC ≦ 1) | 
6 | Cn1cc(NC(=O)c2cc(NC(=O)c3cc(NC(=O)c4sccc4Cl)cn3C)cn2C)cc1C(=O)NCCN1CCSCC1 [Compound 11] | ++ (++ = MIC ≦ 1) | + (+ = MIC ≦ 2) | >32 |  |  | + (+ = MIC ≦ 2) | − (− = MIC > 2) | ≤ 1 |  |  | 
7 | Cn1cc(NC(=O)c2sccc2Cl)cc1C(=O)Nc1cc(-c2nc3ccc(C(=O)NCCN4CCOCC4)cc3[nH]2)n(C)c1 [Compound 12] | ++ (++ = MIC ≦ 1) | ++ (++ = MIC ≦ 1) | >32 |  |  | ++ (++ = MIC ≦ 1) | − (− = MIC > 2) | ≤ 0.1 |  |  | 6.96
8 | Cn1cc(NC(=O)c2cc(NC(=O)c3cc(NC(=O)c4ccc(F)cc4F)cn3C)cn2C)cc1C(=O)NCCN1CCCCCC1 [Compound 15] | ++ (++ = MIC ≦ 1) | + (+ = MIC ≦ 2) | 8 |  |  | ++ (++ = MIC ≦ 1) | − (− = MIC > 2) |  | 2 |  | 
9 | Cn1cc(NC(=O)c2sc3ccccc3c2Cl)cc1C(=O)Nc1cc(C(=O)NCCN2CCCCC2)n(CCN2CCOCC2)c1 [Compound 16] | ++ (++ = MIC ≦ 1) | ++ (++ = MIC ≦ 1) | 4 |  |  | ++ (++ = MIC ≦ 1) | ++ (++ = MIC ≦ 1) |  | 10 |  | 
10 | Cn1cc(NC(=O)c2sc3ccccc3c2Cl)cc1-c1nc2ccc(C(=O)NCCN3CCCCC3)cc2[nH]1 [Compound 18] | ++ (++ = MIC ≦ 1) | ++ (++ = MIC ≦ 1) | >32 |  |  | ++ (++ = MIC ≦ 1) | ++ (++ = MIC ≦ 1) |  | 5 |  | 
